For one data set, the system named is human platelets. As to the kind of experiment: Inhibition of the binding of 3H-BIBU 52 to human platelets (fibrinogen binding test). To be noted: 3H-BIBU 52 5 nM, human platelets in plasma, room temperature, 20 minutes. Here is the method: 1. Inhibition of the Binding of ^3 H-BIBU 52 to Human Platelets:
A suspension of human platelets in plasma is incubated with ^3 H-BIBU 52 [=(3S,5S)-5-[(4'-amidino-4-biphenylyl)-oxymethyl]-3-[(carboxyl)methyl]-2-pyrrolidinone[3-^3 H-4-biphenylyl]], which replaces the ligand ^125 I-fibrinogen known from the literature, (see DE-A-4,214-245) and varius concentrations of the substance to be tested. The free and bound ligand are separated by centrigation and determined quantitatively by scintillation counting. The inhibition of ^3 H-BIBU 52 binding by the test substance is determined from the measurement values.
For this, donor blood is withdrawn form an anticubital vein and anticoagulated with trisodium citrate (final concentration 13 mM). The blood is centriged at 170×g for 10 minutes and the supernatant platelet-rich plasma (PRP) is removed. The residual blood is centriged off under severe conditions once more to isolate the plasma. The PRP is diluted 1:10 with autologous plasma. 750 μl are incubated with 50 μl of physiological saline solution, 100 μl of test substance solution, 50 μl of 14C-sucrose (3,700 Bq) and 50 μl of ^3 H-BIBU 52 (final centration: 5 nM) at room temperature for 20 minutes. To measure the non-specific binding, 100 μl of BIBU 52 (final concentration: […]) are employed instead of the test substance. The samples are centrifuged at 10,000×g for 20 seconds and the supernatant is removed. 100 μl of this are measured for determination of the free ligand. The pellet is dissolved in 500 μl of 0.2N NaOH, […] of scintillator and 25 μl of 5N HCl are added to 450 μl and the sample is measured. The residual plasma which still remains in the pellet is determined from the ^14 C content and the bound ligand is determined from the ^3 H measurement. After subtraction of the non-specific binding, the pellet activity is plotted against the concentration f the test substance and the concentration for 50% inhibition of binding is determined.

Another data set relates to Platelet aggregation. As to the kind of experiment: Inhibition of collagen-induced platelet aggregation (method of Born and Cross) in platelet-rich plasma. To be noted: 10 minutes at 37° C., 50% change in optical density. It counts as cell-based, human (healthy test persons). Here is the method:
2. Antithrombotic Action: Method Platelet aggregation is measured in platelet-rich plasma of healthy test persons by the method of Born and Cross (J. Physiol. 170, 397 (1964)). To inhibit coagulation, 3.14% sodium citrate is added to the blood in a volume ratio of 1:10. Collagen-induced aggregation The course of the decrease in the optical density of the platelet suspension after addition of the substance which induces aggregation is measured and recorded photometrically. The rate of aggregation is concluded from the angle of inclination of the density curve. The point on the curve at which the highest light transmission exists is used to calculate the "optical density". The amount of collagen is as low as possible, but is enough to result in a reaction curve which proceeds irreversibly. Commercially available collagen from Hormonchemie, Munich is used. Before addition of the collagen, the plasma is incubated with the substance for in each case 10 minutes at 37° C. An EC50 which is based on a 50% change in "optical density" in the sense of inhibition of aggregation is determined graphically from the measurement figures obtained.

Details of data set [1]: species or system mice. To be noted: mouse, in vivo, iv, 200 mg/kg.

pEC50, pIC50: −log10 of the molar value. Counter-ions that a name gives are not always drawn. Where only a bound is given, the exact number is not on record here.

In the data set with human platelets, `CC(C)OC(=O)COc1ccc(NC(=O)N2CCN(C3CCNCC3)CC2)cc1` [4(6), Isopropyl [4-[[4-(4-piperidinyl)-piperazin-1-yl]carbonylamino]-phenoxy]acetate dihydrochloride] had a pIC50 of 4.89. The compound also gave a pEC50 with Platelet aggregation (Homo sapiens, 10 min) of 6.55.
With `CCOC(=O)COc1ccc(NC(=O)N2CCN(C3CCNCC3)CC2)cc1` [4(13), Ethyl [4-[[4-(4-piperidinyl)-piperazin-1-yl]carbonylamino]-phenoxy]acetate dihydrochloride], in the data set with human platelets, the pIC50 was 6.51. The pEC50 in the data set with Platelet aggregation (Homo sapiens, 10 min) was 6.89.
As for `O=C(O)CC[C@H]1CC[C@H](NC(=O)N2CCN(C3CCNCC3)CC2)CC1` [Example 1(1), [3-[4-trans-[4-(4-Piperidinyl)-piperazin-1-yl]carbonylamino]cyclohexyl]propionic acid dihydrochloride], the pIC50 in the data set with human platelets was 7.12. In the data set on Platelet aggregation (Homo sapiens, 10 min), this compound showed a pEC50 of 7.02.
Compound `O=C(O)CCCC1CCN(C(=O)N2CCN(C3CCNCC3)CC2)CC1` [Example 1(13), N-[[4-(4-Piperidinyl)-piperazin-1-yl]-carbonyl]-4-(4-piperidinyl)-butyric acid dihydrochloride] showed a pIC50 with human platelets of 6.57. The pEC50 with Platelet aggregation (Homo sapiens, 10 min) was 6.49.
The compound `O=C(O)COc1ccc(C(=O)CN2CCN(C3CCNCC3)CC2)cc1` [Example 1(19), [4-[[4-(4-Piperidinyl)-piperazin-1-yl]acetyl]phenoxyl-acetic acid trihydrochloride] had a negative-log IC50 (pIC50) in the data set with human platelets of 6.70. The compound also showed a pEC50 in the data set with Platelet aggregation (Homo sapiens, 10 min) of 6.41.
Turning to `O=C(O)COc1ccc(NC(=O)N2CCN(C3CCNCC3)CC2)cc1` [Example 1(23), [4-[[4-(4-Piperidinyl)-piperazin-1-yl]carbonylaminolphenoxyl-acetic acid dihydrochloride], the pIC50 with human platelets was 7.17. Further, the toxic side effects result in data set [1] is on record as “no toxic side effects were observed”. The compound also gave a pEC50 with Platelet aggregation (Homo sapiens, 10 min) of 7.01.
`O=C(O)CCOC1CCN(C(=O)N2CCN(C3CCNCC3)CC2)CC1` [Example 1(30), N-[[4-(4-Piperidinyl)-piperazin-1-yl]carbonyl]-3-(piperidin-4-yloxy)-propionic acid dihydrochloride] gave a pIC50 with human platelets of 6.68. In the data set with Platelet aggregation (Homo sapiens, 10 min), this compound had a negative-log EC50 (pEC50) of 6.19.
`O=C(CCN1CCN(C2CCNCC2)CC1)N[C@H]1CC[C@H](C(=O)O)CC1` [Example 1, [4-trans-[3-[4-(4-Piperidinyl)-piperazin-1-yl]propionyl]-amino]cyclohexanecarboxylic acid dihydrochloride] gave a pIC50 in the data set on human platelets of 6.29. This compound had a pEC50 in the data set on Platelet aggregation (Homo sapiens, 10 min) of 6.62.
Consider `COC(=O)COc1ccc(C(=O)CN2CCN(C3CCNCC3)CC2)cc1` [Example 2(11), Methyl [4-[[4-(4-piperidinyl)-piperazin-1-yl]acetyl]phenoxyl-acetatetrihydrochloride], for which, in the data set on human platelets, the pIC50 is 4.48. Also, the pEC50 with Platelet aggregation (Homo sapiens, 10 min) is 6.38.
For `CCOC(=O)CCOC1CCN(C(=O)N2CCN(C3CCNCC3)CC2)CC1` [Example 2(15), Ethyl N-[[4-(4-piperidinyl)-piperazin-1-yl]-carbonyl]-3-(piperidin-4-yloxy)-propionate dihydrochloride], the pIC50 in the data set with human platelets was 4.42. The compound also had a pEC50 in the data set with Platelet aggregation (Homo sapiens, 10 min) of under 5.00.
In the data set on human platelets, `COC(=O)COc1ccc(NC(=O)N2CCN(C3CCNCC3)CC2)cc1` [Example 3(7), Methyl [4-[[4-(4-piperidinyl)-piperazin-1-yl]carbonylamino]phenoxy]acetate dihydrochloride] had a pIC50 of 6.57. In the data set with Platelet aggregation (Homo sapiens, 10 min), the pEC50 was 6.96.
Compound `CC(C)(C)OC(=O)COc1ccc(NC(=O)N2CCN(C3CCNCC3)CC2)cc1` [Example 3(11), tert-Butyl [4-[[4-(4-piperidinyl)-piperazin-1-yl]carbonylamino]-phenoxy]acetate dihydrochloride] gave a pIC50 in the data set with human platelets of 6.20. In the data set with Platelet aggregation (Homo sapiens, 10 min), the pEC50 is 6.01.
Compound `CC(C)COC(=O)COc1ccc(NC(=O)N2CCN(C3CCNCC3)CC2)cc1` [Example 4(7), Isobutyl [4-[[4-(4-piperidinyl)-piperazin-1-yl]carbonylamino]-phenoxy]acetate dihydrochloride] showed a pIC50 in the data set on human platelets of 4.74. The pEC50 in the data set on Platelet aggregation (Homo sapiens, 10 min) is 7.00.
In the case of `CC(C)(C)COC(=O)COc1ccc(NC(=O)N2CCN(C3CCNCC3)CC2)cc1` [Example 4(8), Neopentyl [4-[[4-(4-piperidinyl)-piperazin-1-yl]carbonylamino]-phenoxy]acetate dihydrochloride], the pIC50 in the data set with human platelets was 6.77. Also, the negative-log EC50 (pEC50) in the data set with Platelet aggregation (Homo sapiens, 10 min) was 6.92.
On the same counts, the results for `O=C(COc1ccc(NC(=O)N2CCN(C3CCNCC3)CC2)cc1)OC1CCCC1` [Example 4(9), Cyclopentyl [4-[[4-(4-piperidinyl)-piperazin-1-yl]carbonylamino]-phenoxy]acetate dihydrochloride] are 5.33 and 6.80.
Regarding `O=C(COc1ccc(NC(=O)N2CCN(C3CCNCC3)CC2)cc1)OC1CCCCCC1` [Example 4(10), Cycloheptyl [4-[[4-(4-piperidinyl)-piperazin-1-yl]carbonylamino]-phenoxy]acetate dihydrochloride], the pIC50 with human platelets is 6.23. Moreover, the negative-log EC50 (pEC50) in the data set on Platelet aggregation (Homo sapiens, 10 min) is 7.04.
For `CCCCOC(=O)COc1ccc(NC(=O)N2CCN(C3CCNCC3)CC2)cc1` [Example 4(11), Butyl [4-[[4-(4-piperidinyl)-piperazin-1-yl]carbonylamino]-phenoxy]acetate dihydrochloride], in that order: 4.72 and 6.96.
Consider `O=C(COc1ccc(NC(=O)N2CCN(C3CCNCC3)CC2)cc1)OC1CCCCC1` [Example 4(12), Cyclohexyl [4-[[4-(4-piperidinyl)-piperazin-1-yl]carbonylamino]-phenoxy]acetate dihydrochloride], for which the pEC50 with Platelet aggregation (Homo sapiens, 10 min) was 6.54.
Take `O=C(CC[C@H]1CC[C@H](NC(=O)N2CCN(C3CCNCC3)CC2)CC1)OC1CCCCC1` [Example 4, Cyclohexyl 3-[4-trans-[[4-(4-piperidinyl)-piperazin-1-yl]carbonylamino]-cyclohexylpropionatedihydrochloride]: in the data set on human platelets, the pIC50 is 6.57. Further, the pEC50 in the data set with Platelet aggregation (Homo sapiens, 10 min) is 6.44.
With `O=C(O)CN1CCC(OCC(=O)N2CCN(C3CCNCC3)CC2)CC1` [Example 22(8), [4-[[[4-(piperidin-4-yl)-piperazin-1-yl]-carbonyl]-methyloxy]-piperidin-1-yl]-acetic acid], in the data set with human platelets, the pIC50 is 7.57. The compound also showed a pEC50 in the data set with Platelet aggregation (Homo sapiens, 10 min) of 7.00.
With `O=C(O)CN1CCC(CCC(=O)N2CCN(C3CCNCC3)CC2)CC1` [Example 24(1), [4-[2-[[4-(Piperidin-4-yl)-piperazin-1-yl]-carbonyl]-ethyl]-piperidin-1-yl]-acetic acid trihydrochloride], the pIC50 in the data set with human platelets was 7.92. Moreover, the pEC50 in the data set with Platelet aggregation (Homo sapiens, 10 min) was 7.03.
On to “N-[4-[[4-(4-Piperidinyl)-piperazin-1-yl]carbonyl]piperi-dinyl]-β-alanine trihydrochloride [Example 1(5)]”, for which the pIC50 in the data set on human platelets is 7.11. Also, the pEC50 with Platelet aggregation was 6.60.

Values taken from patent publication US5922717A, “Piperazine derivatives, medicaments comprising these compounds, their use and processes for their preparation” (priority 1994, dated 1999).
